The source made the active and inactive calls. No cut-off for these calls is given here.
Assays:
[1] = test system: Mus musculus; experiment: In vivo inhibition of EZH2 in Balb/c nude mouse xenografted with human BXPC-3 cells assessed as reduction in H3K27me3 level in tumor at 60 mg/kg, ip administered daily for 30 days by IHC analysis; format: functional, organism-based; conditions: time 30.0 day
[2] = test system: BXPC-3; experiment: Inhibition of cell proliferation in human BXPC-3 cells assessed as decrease in c-Myc protein level at 5 uM incubated for 48 hrs by IHC analysis; format: functional, cell-based
[3] = molecular target: T1, Histone-lysine N-methyltransferase EZH2 (Homo sapiens, UniProt Q15910); experiment: Inhibition of EZH2 in human MDA-MB-231 cells assessed as decrease in H3K27me3 level at 5 uM by fluorescence based analysis; format: cell-based
T1 sequence (Q15910 whole entry, looked up): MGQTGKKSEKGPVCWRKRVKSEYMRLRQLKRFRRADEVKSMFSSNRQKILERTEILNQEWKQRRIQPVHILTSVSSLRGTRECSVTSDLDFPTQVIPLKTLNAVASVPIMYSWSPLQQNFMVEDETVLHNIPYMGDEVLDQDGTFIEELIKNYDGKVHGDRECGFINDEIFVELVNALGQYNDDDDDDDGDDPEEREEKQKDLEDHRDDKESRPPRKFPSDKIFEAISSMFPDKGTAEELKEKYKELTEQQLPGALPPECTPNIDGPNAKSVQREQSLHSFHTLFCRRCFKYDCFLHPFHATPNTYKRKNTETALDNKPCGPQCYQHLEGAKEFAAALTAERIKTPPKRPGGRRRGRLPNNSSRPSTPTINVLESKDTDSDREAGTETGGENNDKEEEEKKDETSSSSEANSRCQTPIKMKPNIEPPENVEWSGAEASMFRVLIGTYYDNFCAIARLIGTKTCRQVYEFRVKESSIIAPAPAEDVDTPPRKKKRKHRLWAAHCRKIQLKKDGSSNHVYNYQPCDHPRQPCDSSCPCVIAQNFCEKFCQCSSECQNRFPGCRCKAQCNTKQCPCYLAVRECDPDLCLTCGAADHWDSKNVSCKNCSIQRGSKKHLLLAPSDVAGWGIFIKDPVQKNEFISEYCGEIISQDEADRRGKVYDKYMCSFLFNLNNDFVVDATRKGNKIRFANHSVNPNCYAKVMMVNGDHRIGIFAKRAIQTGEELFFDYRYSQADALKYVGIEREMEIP

[4] = molecular target: T2, Histone-lysine N-methyltransferase EZH1 (Homo sapiens, UniProt Q92800); experiment: Inhibition of EZH1 (unknown origin) by radiometric assay
T2 sequence (Q92800 whole entry): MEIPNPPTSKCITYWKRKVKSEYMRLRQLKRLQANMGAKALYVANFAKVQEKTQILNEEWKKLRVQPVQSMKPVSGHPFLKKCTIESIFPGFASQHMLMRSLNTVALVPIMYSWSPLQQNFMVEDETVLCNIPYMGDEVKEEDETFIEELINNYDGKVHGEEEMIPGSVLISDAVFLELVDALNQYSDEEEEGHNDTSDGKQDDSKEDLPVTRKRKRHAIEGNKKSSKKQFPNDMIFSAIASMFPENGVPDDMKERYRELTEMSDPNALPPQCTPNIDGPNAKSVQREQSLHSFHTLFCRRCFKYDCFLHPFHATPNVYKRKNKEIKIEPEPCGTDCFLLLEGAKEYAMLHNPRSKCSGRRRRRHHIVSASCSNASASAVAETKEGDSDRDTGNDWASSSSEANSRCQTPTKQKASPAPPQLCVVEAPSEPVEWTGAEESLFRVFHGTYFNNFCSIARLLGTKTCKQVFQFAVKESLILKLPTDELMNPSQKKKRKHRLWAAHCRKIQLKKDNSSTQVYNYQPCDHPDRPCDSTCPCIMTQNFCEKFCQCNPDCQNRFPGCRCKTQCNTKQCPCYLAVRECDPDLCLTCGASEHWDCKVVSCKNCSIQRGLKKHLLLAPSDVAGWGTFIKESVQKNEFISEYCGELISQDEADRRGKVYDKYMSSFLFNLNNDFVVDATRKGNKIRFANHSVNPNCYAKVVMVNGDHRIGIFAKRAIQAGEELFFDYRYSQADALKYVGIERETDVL

[5] = test system: BXPC-3; experiment: Induction of apoptosis in human BXPC-3 cells assessed as necrotic cells at 5 uM incubated for 48 hrs by Annexin V-FITC/PI staining based flow cytometric analysis (reference value: 1.65 %); format: functional
[6] = test system: MDA-MB-231; experiment: Induction of apoptosis in human MDA-MB-231 cells assessed as viable cells at 1 uM incubated for 48 hrs by Annexin V-FITC/PI staining based flow cytometric analysis (reference value: 97.63%); format: functional; conditions: read-out: Activity
[7] = test system: BXPC-3; experiment: Antiproliferative activity against human BXPC-3 cells assessed as inhibition of cell proliferation incubated for 6 days by CCK8 assay; format: functional, cell-based; conditions: time 6.0 day
[8] = test system: 95-D; experiment: Antiproliferative activity against human 95-D cells assessed as inhibition of cell proliferation incubated for 6 days by CCK8 assay; format: functional, cell-based; conditions: time 6.0 day
[9] = test system: MDA-MB-231; experiment: Induction of apoptosis in human MDA-MB-231 cells assessed as early apoptotic cells at 1 uM incubated for 48 hrs by Annexin V-FITC/PI staining based flow cytometric analysis (reference value: 0.69%); format: functional
[10] = MRT(0 to infinity) in ICR mouse at 60 mg/kg, ip measured upto 24 hrs by LC-MS/MS analysis; format: ADME, organism-based; conditions: in vivo
[11] = test system: BXPC-3; experiment: Antitumor activity against human BXPC-3 cells xenografted in Balb/c nude mouse assessed as reduction in tumor growth at 60 mg/kg, ip administered daily for 30 days; format: functional, organism-based; conditions: time 30.0 day
[12] = test system: MDA-MB-231; experiment: Induction of apoptosis in human MDA-MB-231 cells assessed as early apoptotic cells at 2.5 uM incubated for 48 hrs by Annexin V-FITC/PI staining based flow cytometric analysis (reference value: 0.69%); format: functional
[13] = test system: PLC-PRF-5; experiment: Antiproliferative activity against human PLC-PRF-5 cells assessed as inhibition of cell proliferation incubated for 6 days by CCK8 assay; format: functional, cell-based; conditions: time 6.0 day
[14] = test system: MDA-MB-231; experiment: Induction of apoptosis in human MDA-MB-231 cells assessed as necrotic cells at 1 uM incubated for 48 hrs by Annexin V-FITC/PI staining based flow cytometric analysis (reference value: 0.63%); format: functional
[15] = test system: BXPC-3; experiment: Induction of apoptosis in human BXPC-3 cells assessed as early apoptotic cells at 2.5 uM incubated for 48 hrs by Annexin V-FITC/PI staining based flow cytometric analysis (reference value: 3.28 %); format: functional
[16] = molecular target: T1, Histone-lysine N-methyltransferase EZH2; experiment: Inhibition of EZH2 in human BXPC-3 cells assessed as increase in H3K27ac level at 5 uM by fluorescence based analysis; format: cell-based
[17] = test system: MDA-MB-231; experiment: Induction of apoptosis in human MDA-MB-231 cells assessed as early apoptotic cells at 5 uM incubated for 48 hrs by Annexin V-FITC/PI staining based flow cytometric analysis (reference value: 0.69%); format: functional
[18] = Tmax in ICR mouse at 60 mg/kg, ip measured upto 24 hrs by LC-MS/MS analysis; format: ADME, organism-based; conditions: in vivo
[19] = test system: MDA-MB-231; experiment: Induction of apoptosis in human MDA-MB-231 cells assessed as necrotic cells at 5 uM incubated for 48 hrs by Annexin V-FITC/PI staining based flow cytometric analysis (reference value: 0.63%); format: functional
[20] = test system: BXPC-3; experiment: Induction of apoptosis in human BXPC-3 cells assessed as necrotic cells at 1 uM incubated for 48 hrs by Annexin V-FITC/PI staining based flow cytometric analysis (reference value: 1.65 %); format: functional
[21] = test system: MDA-MB-231; experiment: Induction of cell cycle arrest in human MDA-MB-231 cells assessed as accumulation of cells at G0/G1 phase at 1 to 5 uM incubated for 48 hrs by flow cytometric analysis; format: functional, cell-based; conditions: dose 1-5 µM
[22] = test system: MDA-MB-231; experiment: Inhibition of cell proliferation in human MDA-MB-231 cells assessed as decrease in c-Myc protein level at 5 uM incubated for 48 hrs by IHC analysis; format: functional, cell-based

inhibition [3]: Active | IC50 [4]: 2.58 µM | MRT inf [10]: 6.94 h | inhibition [16]: Active | Tmax [18]: 4.98 min
Compound: CCC(C)n1ccc2c(C(=O)NCc3c(C)cc(C)[nH]c3=O)cc(-c3cn(C)c(=O)c4[nH]ccc34)cc21 (configuration not stated)
inhibition [1]: Active | inhibition [2]: Active | Activity [5]: 3.35% | viability at 1 µM [6]: 94.8% | Activity [7]: Active | Activity [8]: Active | Activity [9]: 2.87% | Activity [11]: Active | Activity [12]: 8.53% | Activity [13]: Active | Activity [14]: 0.87% | Activity [15]: 9.2% | Activity [17]: 13.19% | Activity [19]: 1.91% | Activity [20]: 2.94% | Activity [21]: Active | inhibition [22]: Active

Reference: ChEMBL document CHEMBL5316343, “Design, Synthesis, and Biological Evaluation of a Potent Dual EZH2-BRD4 Inhibitor for the Treatment of Some Solid Tumors” (J Med Chem, 2023)
